The results in this text go back to PubChem BioAssay (NCI).

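1) Cells in 96-well plates. 2) Compound, 48 h, 5 concentrations. 3) Linear interpolation between surrounding doses. 4) Unreached endpoint = highest concentration. Here, GI50 denotes the concentration required for 50% inhibition of growth. At the TGI there is no net growth.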

Some test systems named below: 786-0 renal; HCC-2998 colon; IGROV1 ovarian; K-562 leukemia; OVCAR-4 ovarian; SF-539 CNS; SK-OV-3 ovarian; SN12C renal; SNB-19 CNS; SNB-75 CNS.
What all share (experiment): NCI tumour cell line growth inhibition, 48 h

In the case of `CC(NCCC(c1ccccc1)c1ccccc1)c1ccccc1` (stereo not given), the GI50 with 786-0 renal was 1.81 µM; in the test with HCC-2998 colon, 1.6 µM; with IGROV1 ovarian it was 2.89 µM; with K-562 leukemia, 2.42 µM; in the test on OVCAR-4 ovarian, 2.15 µM; in the test with SF-539 CNS, 2.92 µM. Besides, the GI50 was 1.65 µM in the test with SK-OV-3 ovarian, 2.42 µM in the test with SN12C renal, 1.56 µM in the test on SNB-19 CNS and 2.79 µM with SNB-75 CNS. The TGI in the test with 786-0 renal was 3.67 µM; in the test with HCC-2998 colon it was 3.07 µM; in the test on IGROV1 ovarian, 13.5 µM; in the test with K-562 leukemia, 5.23 µM; in the test on OVCAR-4 ovarian, 6.66 µM; with SF-539 CNS it was 9.01 µM. For the same compound, the TGI in the test with SK-OV-3 ovarian was determined as 3.81 µM; in the test with SN12C renal, 9.13 µM; in the test on SNB-19 CNS it was 3.44 µM; in the test on SNB-75 CNS, 10.9 µM.
Turning to `NC1CCN(Cc2ccccc2)CC1`, the GI50 was over 100 µM with 786-0 renal; over 100 µM in the test with HCC-2998 colon; 94.6 µM in the test on IGROV1 ovarian; over 100 µM with K-562 leukemia; over 100 µM in the test on OVCAR-4 ovarian; 2.27 µM in the test with SF-539 CNS. For the same compound, the GI50 with SK-OV-3 ovarian, in the test with SN12C renal, in the test on SNB-19 CNS and in the test on SNB-75 CNS was over 100 µM throughout. Also, the TGI was over 100 µM in the test on 786-0 renal; over 100 µM in the test with HCC-2998 colon; over 100 µM in the test on IGROV1 ovarian; over 100 µM in the test on K-562 leukemia; over 100 µM in the test on OVCAR-4 ovarian; 6.21 µM in the test on SF-539 CNS. Besides, the TGI with SK-OV-3 ovarian, in the test with SN12C renal, with SNB-19 CNS and with SNB-75 CNS was over 100 µM throughout.
In the case of `N=c1c2c(-c3ccccc3)c(-c3ccccc3)n(Cc3ccccc3)c2ncn1C1CCC(O)CC1` (stereo not given), the GI50 is 2.12 µM in the test on 786-0 renal; 1.06 µM with HCC-2998 colon; 0.0902 µM in the test with IGROV1 ovarian; 0.0976 µM in the test on K-562 leukemia; 1.43 µM in the test on OVCAR-4 ovarian; 0.639 µM with SF-539 CNS. The GI50 in the test on SK-OV-3 ovarian was 2.32 µM; with SN12C renal, 0.389 µM; with SNB-19 CNS, 1.21 µM; in the test on SNB-75 CNS, 0.92 µM. In addition, the TGI came to 17.3 µM with 786-0 renal; 5.03 µM with HCC-2998 colon; 4.49 µM in the test on IGROV1 ovarian; 2.64 µM in the test on K-562 leukemia; 13.1 µM in the test with OVCAR-4 ovarian; 2.24 µM in the test with SF-539 CNS. For the same compound, the TGI in the test with SK-OV-3 ovarian is 15.7 µM; in the test with SN12C renal, 16.4 µM; in the test with SNB-19 CNS, 17.9 µM; in the test on SNB-75 CNS, 8.85 µM.
For the compound `O=C(/C=C/c1ccc[nH]1)c1ccc(-n2ccc(C(F)(F)F)n2)cc1`, the GI50 is 6.17 µM with 786-0 renal; over 100 µM in the test on HCC-2998 colon; over 100 µM in the test on IGROV1 ovarian; 38.6 µM in the test with K-562 leukemia; 99.1 µM with OVCAR-4 ovarian; 2.53 µM with SF-539 CNS. Besides, the GI50 is over 100 µM in the test on SK-OV-3 ovarian, 10.1 µM with SN12C renal, over 100 µM in the test on SNB-19 CNS and 0.877 µM in the test with SNB-75 CNS. In addition, the TGI in the test on 786-0 renal, in the test with HCC-2998 colon, in the test on IGROV1 ovarian, with K-562 leukemia, with OVCAR-4 ovarian and with SF-539 CNS was over 100 µM throughout. Also, the TGI was over 100 µM in the test on SK-OV-3 ovarian, over 100 µM in the test on SN12C renal, over 100 µM in the test with SNB-19 CNS and 4.37 µM in the test on SNB-75 CNS.
For `CC1(C)OC2C(CO[Si](C)(C)C(C)(C)C)OC(n3c(I)c(C#C[Si](C)(C)C)c(=O)[nH]c3=O)C2O1` (stereo not given), the GI50 in the test on 786-0 renal is 13.1 µM; in the test on HCC-2998 colon it was 4.52 µM; with IGROV1 ovarian, 7.87 µM; with K-562 leukemia, 1.61 µM; in the test on OVCAR-4 ovarian, 16.1 µM; with SF-539 CNS, 15.4 µM. Further, the GI50 in the test on SK-OV-3 ovarian was over 100 µM; in the test on SN12C renal, 15.1 µM; in the test with SNB-19 CNS, over 100 µM; in the test on SNB-75 CNS, 36.7 µM. The TGI is 26.8 µM in the test on 786-0 renal; 17.7 µM in the test with HCC-2998 colon; 21.5 µM in the test with IGROV1 ovarian; 3.89 µM with K-562 leukemia; 31.8 µM in the test with OVCAR-4 ovarian; 28.9 µM with SF-539 CNS. Further, the TGI in the test with SK-OV-3 ovarian is over 100 µM; with SN12C renal, 37.5 µM; in the test on SNB-19 CNS, over 100 µM; with SNB-75 CNS it was over 100 µM.
